Some test systems named below: ACHN; BT-549; HOP-62; K562; KM12; M14; MDA-MB-231; MDA-N; NCI-H522; NCI/ADR-RES; OVCAR-3; OVCAR-8; RXF 393; SF-268; SF-295; SK-MEL-2; SK-MEL-5; T47D; A498.
Common to all, as to assay: DTP human tumour cell line panel, 48 h

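Cells were grown in 96-well plates and exposed to each compound for 48 hours at five concentrations; endpoints were interpolated linearly between bracketing concentrations, or set to the highest concentration if not reached. GI50: concentration for 50% inhibition of growth.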 The source made the active and inactive calls. No stated cut-off is given here; in the data, active = GI50 up to about 1.1 µM and inactive = higher.

Eleven compounds from ChEMBL document CHEMBL1201862, “PubChem BioAssay data set” (2004) can be followed below.

What is called GI50 is the concentration giving 50% growth inhibition. On to `COc1cc(Br)cc2cc(-c3cn4ccsc4n3)c(=O)oc12`, for which the GI50 in the test with ACHN is 34.8 µM (inactive); with BT-549, 20.3 µM (inactive); in the test with HOP-62 it was 29.1 µM (inactive); in the test on K562 it was 32.1 µM (inactive); with KM12, 18.9 µM (inactive); with M14 it was 27.9 µM (inactive). The GI50 in the test on MDA-MB-231 was 20.6 µM (inactive); with MDA-N it was 17 µM (inactive); in the test with NCI-H522, 31 µM (inactive); with NCI/ADR-RES, 34.2 µM (inactive); in the test with OVCAR-3, 35 µM (inactive); with OVCAR-8, 45.8 µM (inactive). The GI50 was 24.8 µM (inactive) in the test on RXF 393; 34.3 µM (inactive) in the test on SF-268; 26.8 µM (inactive) with SF-295; 58.9 µM (inactive) with SK-MEL-2; 19.7 µM (inactive) in the test with SK-MEL-5; 19.6 µM (inactive) in the test with T47D.

For `Cc1nn(C2OC(CO)C(O)C(F)C2O)c(=O)[nH]c1=O` (centres undefined), the GI50 with A498, in the test with ACHN, with BT-549, in the test with K562, in the test on M14 and with MDA-MB-231 was > 100 µM (inactive) throughout. In addition, the GI50 with MDA-N, in the test with NCI-H522, with NCI/ADR-RES, in the test with OVCAR-3, with OVCAR-8 and in the test with SF-268 was > 100 µM (inactive) each time. The GI50 in the test on SF-295, in the test on SK-MEL-2, in the test on SK-MEL-5 and with T47D was > 100 µM (inactive) throughout.

Regarding `COc1ccc(/C=C2\CCC(CNc3ccc(OC)cc3)C2=O)cc1` (centres undefined), the GI50 is 30.1 µM (inactive) with A498; 18.7 µM (inactive) in the test with ACHN; 13.7 µM (inactive) in the test on BT-549; 36.4 µM (inactive) in the test with HOP-62; 10.5 µM (inactive) in the test on KM12; 16.1 µM (inactive) in the test with M14. In addition, the GI50 is 17.8 µM (inactive) with MDA-MB-231; 14.1 µM (inactive) in the test with MDA-N; 5.58 µM (inactive) in the test on NCI-H522; 39.4 µM (inactive) with NCI/ADR-RES; 17.4 µM (inactive) in the test on OVCAR-3; 17.7 µM (inactive) in the test with OVCAR-8. For the same compound, the GI50 in the test on RXF 393 was 16.2 µM (inactive); in the test with SF-268 it was 14.6 µM (inactive); with SF-295 it was 31 µM (inactive); in the test on SK-MEL-5 it was 19 µM (inactive); in the test with T47D, 18.8 µM (inactive).

`CCOC(=O)c1[nH]c2cccc3c2c1CC(Br)C3=O` (centres undefined): the GI50 in the test on A498 was 17.7 µM (inactive); in the test on ACHN, 6.98 µM (inactive); in the test with BT-549 it was 16.9 µM (inactive); in the test on HOP-62, 19 µM (inactive); with KM12 it was 15.8 µM (inactive); with M14, 13.4 µM (inactive). The GI50 in the test on MDA-MB-231 is 18.5 µM (inactive); in the test on MDA-N, 11.6 µM (inactive); in the test with NCI/ADR-RES it was 15.3 µM (inactive); in the test on OVCAR-3, 13.2 µM (inactive); in the test on OVCAR-8 it was 16.6 µM (inactive); in the test with SF-268 it was 15.6 µM (inactive). Also, the results for the GI50 in the test on SF-295, in the test on SK-MEL-5 and with T47D were 17.2 µM (inactive), 18.5 µM (inactive) and 15.9 µM (inactive), respectively.

Turning to `O=C1/C(=C/Cc2ccco2)N=C(c2ccccc2)N1c1nc2c(Cl)cc(Cl)cc2s1`, the GI50 in the test with A498 was 15.2 µM (inactive); with ACHN it was 24.6 µM (inactive); with BT-549 it was 26 µM (inactive); in the test on HOP-62, 24.8 µM (inactive); with K562, 25.1 µM (inactive); in the test with KM12, 27.7 µM (inactive). In addition, the GI50 in the test on M14 was 39.3 µM (inactive); with MDA-MB-231, 27.2 µM (inactive); in the test with MDA-N, 20.9 µM (inactive); with NCI/ADR-RES it was 24.3 µM (inactive); in the test with OVCAR-3, 22.5 µM (inactive); in the test with OVCAR-8 it was 36 µM (inactive). For the same compound, the GI50 in the test on RXF 393 was 13.4 µM (inactive); in the test with SF-268, 40.3 µM (inactive); with SF-295, 32.1 µM (inactive); with SK-MEL-2, 23.7 µM (inactive); with SK-MEL-5, 22.5 µM (inactive); in the test on T47D, 16.8 µM (inactive).

As for `Cn1c2ccccc2c(=NNc2ccccc2C(=O)O)c2ccccc21`, the GI50 in the test on ACHN is 15.5 µM (inactive); in the test with BT-549, 19.1 µM (inactive); in the test on HOP-62, 23.1 µM (inactive); with K562, 8.97 µM (inactive); in the test on KM12, 12.7 µM (inactive); in the test with M14 it was 22.6 µM (inactive). Also, the GI50 in the test with MDA-MB-231 is 16.9 µM (inactive); with MDA-N it was 21.2 µM (inactive); in the test with NCI-H522, 12 µM (inactive); in the test with NCI/ADR-RES, 20.1 µM (inactive); in the test with OVCAR-3, 10.8 µM (inactive); with OVCAR-8, 17.5 µM (inactive). The GI50 in the test with RXF 393 was 12.7 µM (inactive); with SF-268, 15.8 µM (inactive); with SF-295, 17.6 µM (inactive); in the test on SK-MEL-2, 18.7 µM (inactive); with SK-MEL-5 it was 13.7 µM (inactive); in the test with T47D it was 20.3 µM (inactive).

Take `C=C1C[C@@H](O)[C@@H](Br)C(C)(C)[C@]12CCC(C)(Cl)C(Br)C2` (some centres undefined): the GI50 is > 46.9 µM (inactive) in the test with A498; 32.8 µM (inactive) in the test on ACHN; 35.5 µM (inactive) in the test on BT-549; 19.1 µM (inactive) in the test on HOP-62; 53.5 µM (inactive) in the test on K562; 0.929 µM (active) in the test with KM12. In addition, the GI50 with M14 is 34 µM (inactive); in the test on MDA-MB-231, 40.7 µM (inactive); in the test with MDA-N, 25.5 µM (inactive); in the test with NCI-H522, 17.5 µM (inactive); with NCI/ADR-RES, 21.4 µM (inactive); in the test on OVCAR-3, 15.7 µM (inactive). Besides, the GI50 with OVCAR-8 is 34.7 µM (inactive); in the test with RXF 393 it was 28.6 µM (inactive); with SF-268, 32 µM (inactive); in the test with SF-295 it was 30.6 µM (inactive); in the test on SK-MEL-2, 15.1 µM (inactive); in the test with SK-MEL-5, 7.71 µM (inactive). Also, in the test on T47D, the GI50 was 19.5 µM (inactive).

As for `O=C1c2ccccc2-c2[nH]c3cn[nH]c(=O)c3c21`, the GI50 in the test with A498 was 33.5 µM (inactive); in the test on ACHN, 85.9 µM (inactive); in the test with BT-549 it was > 100 µM (inactive); with HOP-62 it was 82 µM (inactive); in the test with K562, 61.2 µM (inactive); with KM12 it was > 100 µM (inactive). Moreover, the GI50 in the test with M14 was > 100 µM (inactive); in the test on MDA-MB-231, 97.5 µM (inactive); in the test with MDA-N it was 61.4 µM (inactive); in the test with NCI-H522, 13.4 µM (inactive); in the test on NCI/ADR-RES it was > 100 µM (inactive); in the test with OVCAR-3 it was > 100 µM (inactive). Moreover, the GI50 is > 100 µM (inactive) in the test with OVCAR-8; 99.1 µM (inactive) in the test with SF-268; > 100 µM (inactive) in the test with SF-295; 47.2 µM (inactive) with SK-MEL-2; > 100 µM (inactive) with SK-MEL-5; > 100 µM (inactive) in the test on T47D.

Take `CON(C)C(=O)[C@H]1C[C@@]1(C)CO`: the GI50 in the test on A498, with ACHN, with BT-549, with HOP-62, in the test with K562 and in the test on KM12 was > 100 µM (inactive) throughout. In addition, the GI50 in the test on M14, with MDA-MB-231, in the test with MDA-N, with NCI/ADR-RES, in the test on OVCAR-3 and in the test on OVCAR-8 was > 100 µM (inactive) in each case. The GI50 in the test on RXF 393, with SF-268, in the test on SF-295, in the test with SK-MEL-2, in the test on SK-MEL-5 and with T47D was > 100 µM (inactive) throughout.

Turning to `O=C(/C=C/c1ccccc1)c1cc(CN2CCOCC2)c(O)c(CN2CCOCC2)c1`, the GI50 with A498 is 12.9 µM (inactive); with ACHN, 2.32 µM (inactive); in the test with BT-549, 28 µM (inactive); in the test on HOP-62, 16.8 µM (inactive); with K562, 5.47 µM (inactive); with KM12 it was 15.5 µM (inactive). Also, the GI50 in the test on M14 was 17.9 µM (inactive); in the test on MDA-MB-231, 18.2 µM (inactive); in the test with MDA-N, 19.7 µM (inactive); in the test on NCI-H522, > 100 µM (inactive); with NCI/ADR-RES, 25.5 µM (inactive); in the test with OVCAR-3, 12.2 µM (inactive). For the same compound, the GI50 is 25.2 µM (inactive) with OVCAR-8; 14.1 µM (inactive) in the test on RXF 393; 19.1 µM (inactive) with SF-268; 19.1 µM (inactive) in the test on SF-295; 23.4 µM (inactive) in the test with SK-MEL-2; 13.1 µM (inactive) in the test with SK-MEL-5. In the test on T47D, the GI50 is 20 µM (inactive).

Regarding `C=C(C(=O)OC)[C@@H]1C[C@@H](OC(C)=O)C2=C[C@H](C[C@@]3(C)O[C@@H]3C3=CC(C)=C(O3)[C@H]1OC(C)=O)OC2=O` [BIPINNATIN I], the GI50 with A498 was 16.9 µM (inactive); in the test on ACHN, 16.5 µM (inactive); in the test with BT-549, 12.9 µM (inactive); in the test on HOP-62 it was 22.7 µM (inactive); in the test with K562, 6.84 µM (inactive); with KM12 it was 19.8 µM (inactive). In addition, the GI50 in the test with M14 is 14.8 µM (inactive); in the test on MDA-MB-231, 20.9 µM (inactive); in the test on MDA-N, 19.4 µM (inactive); in the test on NCI-H522, 2.59 µM (inactive); in the test with NCI/ADR-RES it was 32.9 µM (inactive); in the test on OVCAR-8 it was 17.3 µM (inactive). The GI50 was 12 µM (inactive) in the test with RXF 393; 36.1 µM (inactive) in the test on SF-268; 27 µM (inactive) in the test with SF-295; 31 µM (inactive) in the test with SK-MEL-2; 15.2 µM (inactive) with SK-MEL-5; 12.7 µM (inactive) in the test on T47D.
